The series in a line: cn = amount concentration of the nth substance listed, in mol/dm3. Conditions: 298.15 K, 101.3 kPa, Liquid, Taylor dispersion method.

With `NCC(=O)O` [2-aminoacetic acid] + O, the binary diffusion coefficient is, setting by setting: (c1 = 0.005) 1.06e-09 m2/s; (c1 = 0.1) 1.04e-09 m2/s.

For the origin of these results see the NIST ThermoML archive (doi:10.1016/j.jct.2018.03.014).
